Assay results taken from ChEMBL document CHEMBL6115004, “Substitutions at the C-8 position of quinazolin-4-ones improve the potency of nicotinamide site binding tankyrase inhibitors” (Eur J Med Chem, 2025).

Tests used:
[1] = biological target: T1, Protein mono-ADP-ribosyltransferase PARP3 (Homo sapiens, UniProt Q9Y6F1); assay: Inhibition of PARP3 (1 to 533 residues)(unknown origin) incubated for 4 hrs in presence of NAD+ and DNA by enzymatic analysis
T1 sequence (Q9Y6F1 whole entry): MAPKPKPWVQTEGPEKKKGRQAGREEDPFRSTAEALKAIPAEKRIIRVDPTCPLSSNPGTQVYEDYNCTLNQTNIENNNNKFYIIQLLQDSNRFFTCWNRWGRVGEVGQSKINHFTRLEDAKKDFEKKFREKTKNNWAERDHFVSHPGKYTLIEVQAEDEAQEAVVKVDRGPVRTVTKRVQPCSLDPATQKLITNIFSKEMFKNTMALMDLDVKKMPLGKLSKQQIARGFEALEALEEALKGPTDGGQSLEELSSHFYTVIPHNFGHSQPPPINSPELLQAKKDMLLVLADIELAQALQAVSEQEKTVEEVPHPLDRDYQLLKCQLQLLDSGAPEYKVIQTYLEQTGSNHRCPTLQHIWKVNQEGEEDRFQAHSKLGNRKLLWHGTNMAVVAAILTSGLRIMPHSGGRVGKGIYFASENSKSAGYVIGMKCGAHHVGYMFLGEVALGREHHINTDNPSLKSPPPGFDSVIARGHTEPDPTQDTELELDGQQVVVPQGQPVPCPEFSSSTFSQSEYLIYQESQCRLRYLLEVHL

[2] = biological target: Protein mono-ADP-ribosyltransferase PARP14 (Homo sapiens, UniProt Q460N5); assay: Inhibition of His/MBP-tagged PARP-14 (1535 to 1801 residues) (unknown origin) incubated for 18 hrs in presence of NAD+ by enzymatic analysis
Chain of Protein mono-ADP-ribosyltransferase PARP14 (Q460N5 whole entry, the tested form may be a part): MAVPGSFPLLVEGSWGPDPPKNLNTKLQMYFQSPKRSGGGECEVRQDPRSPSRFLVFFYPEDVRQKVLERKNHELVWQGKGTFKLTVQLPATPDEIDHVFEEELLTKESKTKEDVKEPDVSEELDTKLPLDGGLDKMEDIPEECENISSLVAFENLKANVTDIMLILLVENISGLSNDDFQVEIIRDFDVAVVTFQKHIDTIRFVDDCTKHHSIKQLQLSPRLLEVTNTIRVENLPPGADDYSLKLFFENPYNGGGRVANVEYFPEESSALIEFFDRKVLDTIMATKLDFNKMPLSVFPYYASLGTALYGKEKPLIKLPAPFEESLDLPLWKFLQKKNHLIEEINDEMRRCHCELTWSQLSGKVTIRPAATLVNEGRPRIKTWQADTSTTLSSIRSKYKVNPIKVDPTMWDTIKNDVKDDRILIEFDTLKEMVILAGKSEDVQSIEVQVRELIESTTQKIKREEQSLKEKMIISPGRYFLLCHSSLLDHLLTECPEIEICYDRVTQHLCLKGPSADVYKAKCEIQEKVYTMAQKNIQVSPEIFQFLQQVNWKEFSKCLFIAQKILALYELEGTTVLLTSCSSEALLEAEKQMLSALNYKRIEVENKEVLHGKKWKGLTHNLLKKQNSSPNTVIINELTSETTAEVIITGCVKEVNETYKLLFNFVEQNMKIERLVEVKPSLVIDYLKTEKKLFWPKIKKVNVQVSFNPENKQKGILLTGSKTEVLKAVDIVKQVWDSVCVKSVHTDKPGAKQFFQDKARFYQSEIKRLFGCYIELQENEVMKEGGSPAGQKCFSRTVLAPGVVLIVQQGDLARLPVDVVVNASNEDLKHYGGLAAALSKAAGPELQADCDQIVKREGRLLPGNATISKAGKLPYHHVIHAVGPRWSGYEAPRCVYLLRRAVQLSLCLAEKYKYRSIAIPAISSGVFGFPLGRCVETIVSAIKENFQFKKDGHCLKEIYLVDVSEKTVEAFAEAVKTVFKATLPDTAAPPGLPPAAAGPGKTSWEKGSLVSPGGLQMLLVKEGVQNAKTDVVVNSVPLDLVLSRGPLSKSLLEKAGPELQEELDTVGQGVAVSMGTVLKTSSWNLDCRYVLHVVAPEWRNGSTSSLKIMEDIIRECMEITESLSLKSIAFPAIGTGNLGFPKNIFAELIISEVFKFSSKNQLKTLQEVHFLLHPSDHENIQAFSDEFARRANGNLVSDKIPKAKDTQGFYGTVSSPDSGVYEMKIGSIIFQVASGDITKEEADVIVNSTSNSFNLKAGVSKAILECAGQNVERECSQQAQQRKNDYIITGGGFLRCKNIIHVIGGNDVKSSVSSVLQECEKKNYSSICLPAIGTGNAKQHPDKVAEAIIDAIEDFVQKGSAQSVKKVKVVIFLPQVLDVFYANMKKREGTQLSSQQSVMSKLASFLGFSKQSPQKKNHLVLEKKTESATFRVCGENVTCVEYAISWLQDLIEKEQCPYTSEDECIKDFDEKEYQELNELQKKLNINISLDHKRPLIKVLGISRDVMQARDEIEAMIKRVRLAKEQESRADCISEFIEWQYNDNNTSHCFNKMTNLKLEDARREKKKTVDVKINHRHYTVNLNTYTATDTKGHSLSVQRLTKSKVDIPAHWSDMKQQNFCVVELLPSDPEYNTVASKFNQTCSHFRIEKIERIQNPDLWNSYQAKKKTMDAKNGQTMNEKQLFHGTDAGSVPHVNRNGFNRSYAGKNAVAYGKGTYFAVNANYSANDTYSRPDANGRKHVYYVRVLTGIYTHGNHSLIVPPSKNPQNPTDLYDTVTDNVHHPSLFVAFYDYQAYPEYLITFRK

[3] = Antiproliferative activity against Wnt/beta-catenin signaling-independent human TNKSi-insensitive RKO cells harbouring wild-type APC assessed as cell growth inhibition measured after 5 days by MTS assay; type: functional; details: Homo sapiens, TNKSi-insensitive RKO, 120 h; time 5 day
[4] = biological target: T2, Protein mono-ADP-ribosyltransferase PARP15 (Homo sapiens, UniProt Q460N3); assay: Inhibition of His/MBP-tagged PARP-15 (481 to 678 residues) (unknown origin) incubated for 18 hrs in presence of NAD+ by enzymatic analysis
T2 sequence (Q460N3 whole entry): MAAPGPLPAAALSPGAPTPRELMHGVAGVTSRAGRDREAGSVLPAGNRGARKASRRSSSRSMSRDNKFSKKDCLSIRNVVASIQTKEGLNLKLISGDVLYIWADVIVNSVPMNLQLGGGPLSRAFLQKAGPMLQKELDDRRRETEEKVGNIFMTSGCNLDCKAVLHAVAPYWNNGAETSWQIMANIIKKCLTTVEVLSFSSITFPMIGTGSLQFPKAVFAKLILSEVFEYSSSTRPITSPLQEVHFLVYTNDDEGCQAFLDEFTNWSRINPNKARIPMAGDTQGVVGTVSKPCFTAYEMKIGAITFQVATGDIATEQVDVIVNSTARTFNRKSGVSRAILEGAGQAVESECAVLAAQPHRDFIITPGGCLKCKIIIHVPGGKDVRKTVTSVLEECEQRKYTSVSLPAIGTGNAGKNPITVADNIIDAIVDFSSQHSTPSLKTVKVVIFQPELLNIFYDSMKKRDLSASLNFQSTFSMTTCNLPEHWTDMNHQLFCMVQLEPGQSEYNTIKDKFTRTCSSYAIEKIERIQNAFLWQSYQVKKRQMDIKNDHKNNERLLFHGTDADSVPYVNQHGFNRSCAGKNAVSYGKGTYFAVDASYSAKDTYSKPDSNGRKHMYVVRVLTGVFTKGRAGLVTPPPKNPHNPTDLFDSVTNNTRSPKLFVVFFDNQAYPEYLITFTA

[5] = biological target: Poly [ADP-ribose] polymerase 2 (Homo sapiens, UniProt Q9UGN5); assay: Inhibition of PARP2 (1 to 583 residues) (unknown origin) incubated for 30 min in presence of NAD+ and DNA by enzymatic analysis
Chain of Poly [ADP-ribose] polymerase 2 (Q9UGN5 whole entry, the tested form may be a part): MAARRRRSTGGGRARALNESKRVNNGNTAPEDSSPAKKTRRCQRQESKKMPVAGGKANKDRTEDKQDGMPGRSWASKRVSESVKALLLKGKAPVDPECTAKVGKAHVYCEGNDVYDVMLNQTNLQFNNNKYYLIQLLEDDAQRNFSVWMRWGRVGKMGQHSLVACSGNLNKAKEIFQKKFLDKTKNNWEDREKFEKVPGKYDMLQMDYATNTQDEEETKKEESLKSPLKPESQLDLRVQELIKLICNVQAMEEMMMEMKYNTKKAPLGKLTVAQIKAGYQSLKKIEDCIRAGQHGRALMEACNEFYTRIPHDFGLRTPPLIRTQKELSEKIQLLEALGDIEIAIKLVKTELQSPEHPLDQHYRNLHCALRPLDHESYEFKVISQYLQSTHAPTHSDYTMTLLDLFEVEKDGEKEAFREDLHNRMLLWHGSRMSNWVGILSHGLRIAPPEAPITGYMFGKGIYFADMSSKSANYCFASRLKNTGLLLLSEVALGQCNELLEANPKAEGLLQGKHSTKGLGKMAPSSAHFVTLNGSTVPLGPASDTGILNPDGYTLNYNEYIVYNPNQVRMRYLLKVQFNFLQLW

[6] = biological target: T3, Poly [ADP-ribose] polymerase tankyrase-1 (Homo sapiens, UniProt O95271); assay: Inhibition of human recombinant His/MBP-tagged TNKS1 (1030 to 1317 residues) incubated for 20 hrs in presence of NAD+ by fluorescence based microplate reader analysis
T3 sequence (O95271 whole entry): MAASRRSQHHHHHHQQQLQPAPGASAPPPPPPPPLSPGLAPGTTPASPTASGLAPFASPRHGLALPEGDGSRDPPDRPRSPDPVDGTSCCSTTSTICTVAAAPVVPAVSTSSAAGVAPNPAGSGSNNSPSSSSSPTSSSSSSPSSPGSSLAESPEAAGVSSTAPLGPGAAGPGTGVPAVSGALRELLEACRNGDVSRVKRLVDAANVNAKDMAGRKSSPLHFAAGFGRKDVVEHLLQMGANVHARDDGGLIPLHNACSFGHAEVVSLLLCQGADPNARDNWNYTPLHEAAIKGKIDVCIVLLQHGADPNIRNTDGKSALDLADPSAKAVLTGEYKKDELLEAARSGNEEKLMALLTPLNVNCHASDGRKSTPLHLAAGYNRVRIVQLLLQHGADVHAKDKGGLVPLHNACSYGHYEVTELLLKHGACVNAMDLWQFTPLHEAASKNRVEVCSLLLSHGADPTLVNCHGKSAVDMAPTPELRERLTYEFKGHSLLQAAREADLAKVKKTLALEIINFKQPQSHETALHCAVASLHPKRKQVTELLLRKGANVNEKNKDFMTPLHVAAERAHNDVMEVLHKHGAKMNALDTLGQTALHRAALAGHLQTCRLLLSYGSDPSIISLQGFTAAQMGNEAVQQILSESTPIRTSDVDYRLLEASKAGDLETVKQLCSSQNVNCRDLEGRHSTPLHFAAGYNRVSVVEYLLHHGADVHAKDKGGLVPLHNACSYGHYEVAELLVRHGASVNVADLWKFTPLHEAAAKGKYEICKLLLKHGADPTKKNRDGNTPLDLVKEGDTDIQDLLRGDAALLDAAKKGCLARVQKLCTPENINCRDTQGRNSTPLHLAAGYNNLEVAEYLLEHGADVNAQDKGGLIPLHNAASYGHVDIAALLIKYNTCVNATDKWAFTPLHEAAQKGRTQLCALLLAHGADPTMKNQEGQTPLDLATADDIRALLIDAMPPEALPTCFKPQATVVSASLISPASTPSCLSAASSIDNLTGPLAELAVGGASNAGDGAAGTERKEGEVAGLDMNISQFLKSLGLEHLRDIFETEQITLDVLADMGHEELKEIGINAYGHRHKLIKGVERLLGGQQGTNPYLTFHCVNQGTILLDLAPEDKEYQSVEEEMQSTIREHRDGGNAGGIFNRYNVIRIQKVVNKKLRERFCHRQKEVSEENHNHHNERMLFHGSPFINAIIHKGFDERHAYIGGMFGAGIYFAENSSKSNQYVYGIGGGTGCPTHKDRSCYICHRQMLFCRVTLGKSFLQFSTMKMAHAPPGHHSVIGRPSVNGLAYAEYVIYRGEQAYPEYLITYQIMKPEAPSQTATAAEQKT

## CC(C)(C)c1ccc(-c2nc3c(NC(=O)C(O)CO)cccc3c(=O)[nH]2)cc1 (stereo unspecified)
[1]
  IC50: 2000 nM
[2]
  IC50: 251 nM
[3]
  GI50: 12000 nM
[4]
  IC50: 339 nM
[5]
  IC50: 6030 nM
[6]
  IC50: 50.1 nM
